Laboratory results: patent US20250248998A1, “LRRK2 Inhibitors” (Brenig Therapeutics, Inc., priority 2022, published 2025)

Key:
LRRK2[G2019S] [1] = biological target: T1, LRRK2[G2019S] (Homo sapiens, UniProt Q5S007, G2019S); experiment: Enzymatic activity inhibition against LRRK2[G2019S] (ADP-Glo kinase assay, LRRKtide substrate); type: biochemical; design: purchased SignalChem Biotech, Inc. L10-12GG-10; details: recombinant LRRK2[G2019S] 36 nM, ATP, 1 h at rt, average Ki
Method: Example A. Primary Assays Used to Determine Potency of the LRRK2 Inhibition
Assay for Determining Enzymatic Activity Inhibition Against LRRK2[G2019S].
Compound activity was determined using recombinant LRRK2[G2019S] protein (SignalChem Biotech, Inc., Cat #L10-12GG-10) and LRRKtide substrate (SignalChem Biotech, Inc., Cat #L10-58) in an in vitro enzymatic reaction. The enzymatic reaction was carried out in assay buffer (40 mM TRIS-HCl pH 7.4, 20 mM MgCl2, 0.05 mM DTT, 0.1 mg/mL BSA). The compounds were dispensed into a 384 well Diamond Well Plate (Axigen, Cat #P-384-120SQ-C-S) using the Biomek FX liquid handling system at the 80× solutions of compounds in DMSO. The 2× Protein-Substrate mix (final concentration 36 nM of LRRK2[G2019S] and 0.8 μg/μL of LRRKtide) was prepared in 1× Assay buffer and 4 μL of mixture per well was added into the 384-well white Reaction plate with NBS (Corning, Cat #CLS4513). The 4 μL of LRRKtide substrate w/o LRRK2[G2019S] in the 1× buffer was used for a negative control. Plates were centrifuged for 1 min at 200 g. Next the compounds were added to the reaction plate using Biomek station via following steps: 1 μL of 80× compounds (in DMSO) were mixed thoroughly with 39 μL of 2×10 μM ATP in Assay Buffer, then 4 μL of this mixture was added to Reaction plate with 4 μL of Protein-Substrate mix. Plates were centrifuged for 1 min at 200 g and incubated for 1 h at rt. Then, 4 μL per well of ADP-Glo reagent (Promega, ADP-Glo™ Kinase Assay, Cat #V9102) was added. Plates were incubated for 30 min at rt. Then, 8 μL per well of Kinase detection reagent (Promega, ADP-Glo™ Kinase Assay, Cat #V9102) was added and the luminescence signal was measured with a microplate reader. The luminescence signal was detected with CLARIOstar Plus (BMG LABTECH) microplate reader. The % inhibition was then used to calculate the Ki values. The average Ki values are shown in Table A, wherein “A” corresponds to Ki<5.0 nM, “B” corresponds to 5.0 nM≤Ki<10.0 nM, “C” 10.0 nM≤Ki<50.0 nM, “D” corresponds to 50.0 nM≤Ki<100.0 nM and “E” corresponds to Ki>100.0 nM.
Target sequence in this assay (Q5S007 970-2527 G2019S limits assumed): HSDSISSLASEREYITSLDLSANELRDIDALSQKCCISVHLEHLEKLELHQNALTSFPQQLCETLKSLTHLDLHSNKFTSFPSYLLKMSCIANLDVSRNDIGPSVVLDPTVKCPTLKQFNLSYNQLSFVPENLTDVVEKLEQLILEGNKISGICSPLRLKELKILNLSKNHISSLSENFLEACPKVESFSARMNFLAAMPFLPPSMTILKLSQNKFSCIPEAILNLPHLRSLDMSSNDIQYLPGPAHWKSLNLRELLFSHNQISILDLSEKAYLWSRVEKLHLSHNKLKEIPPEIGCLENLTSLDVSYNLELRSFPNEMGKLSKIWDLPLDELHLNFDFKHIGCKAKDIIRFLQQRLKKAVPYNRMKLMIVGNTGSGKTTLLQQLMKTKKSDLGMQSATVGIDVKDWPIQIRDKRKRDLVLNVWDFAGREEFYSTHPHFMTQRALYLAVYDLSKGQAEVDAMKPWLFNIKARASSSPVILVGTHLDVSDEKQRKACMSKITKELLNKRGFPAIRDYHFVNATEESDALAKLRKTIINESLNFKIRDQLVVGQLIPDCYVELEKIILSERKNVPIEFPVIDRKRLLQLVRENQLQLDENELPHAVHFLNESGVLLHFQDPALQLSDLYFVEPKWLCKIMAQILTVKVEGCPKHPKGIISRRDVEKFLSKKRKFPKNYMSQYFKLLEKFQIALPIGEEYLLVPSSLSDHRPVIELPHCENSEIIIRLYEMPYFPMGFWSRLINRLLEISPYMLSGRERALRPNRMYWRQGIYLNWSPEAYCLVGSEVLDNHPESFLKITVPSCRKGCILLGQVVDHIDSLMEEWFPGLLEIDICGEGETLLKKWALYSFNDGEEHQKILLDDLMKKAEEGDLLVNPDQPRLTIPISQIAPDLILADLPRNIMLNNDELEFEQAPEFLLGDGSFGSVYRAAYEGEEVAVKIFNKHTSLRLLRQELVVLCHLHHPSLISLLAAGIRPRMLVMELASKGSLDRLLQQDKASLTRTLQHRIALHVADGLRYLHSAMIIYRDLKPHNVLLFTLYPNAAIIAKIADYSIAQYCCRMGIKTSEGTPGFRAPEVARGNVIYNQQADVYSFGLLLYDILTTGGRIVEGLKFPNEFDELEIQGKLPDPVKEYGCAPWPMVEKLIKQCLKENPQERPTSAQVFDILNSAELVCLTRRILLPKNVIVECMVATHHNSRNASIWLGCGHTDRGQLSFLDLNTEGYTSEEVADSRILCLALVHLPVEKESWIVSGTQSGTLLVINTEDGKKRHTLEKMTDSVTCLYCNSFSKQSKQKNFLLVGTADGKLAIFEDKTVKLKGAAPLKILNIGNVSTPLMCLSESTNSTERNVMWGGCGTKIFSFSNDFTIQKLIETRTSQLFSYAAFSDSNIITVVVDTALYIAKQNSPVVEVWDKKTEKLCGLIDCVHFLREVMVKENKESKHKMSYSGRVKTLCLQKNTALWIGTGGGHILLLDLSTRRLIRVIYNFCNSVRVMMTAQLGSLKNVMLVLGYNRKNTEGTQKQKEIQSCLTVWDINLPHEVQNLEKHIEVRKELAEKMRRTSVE

LRRK2 WT [2] = biological target: T2, LRRK2 WT (Homo sapiens, UniProt Q5S007); experiment: Enzymatic activity inhibition against LRRK2 WT (ADP-Glo kinase assay, LRRKtide substrate); type: biochemical; design: purchased SignalChem Biotech, Inc. L10-11G-10; details: recombinant LRRK2 WT 36 nM, ATP, 1 h at rt, average Ki
Method: Example B. Primary Assays Used to Determine Potency of the LRRK2 Inhibition
Assay for Determining Enzymatic Activity Inhibition Against LRRK2 WT.
Compound activity was determined using recombinant LRRK2 WT protein (SignalChem Biotech, Inc., Cat #L10-11G-10) and LRRKtide substrate (SignalChem Biotech, Inc., Cat #L10-58) in an in vitro enzymatic reaction. The enzymatic reaction was carried out in assay buffer (40 mM TRIS-HCl pH 7.4, 20 mM MgCl2, 0.05 mM DTT, 0.1 mg/mL BSA). The compounds were dispensed into a 384 well Diamond Well Plate (Axigen, Cat #P-384-120SQ-C-S) using the Biomek FX liquid handling system at 80× solutions of compounds in DMSO. The 2× Protein-Substrate mix (final concentration 36 nM of LRRK2 WT and 0.8 μg/μL of LRRKtide) was prepared in the 1× Assay buffer and 4 μL of mixture per well was added into the 384-well white Reaction plate with NBS (Corning, Cat #CLS4513). The 4 μL of LRRKtide substrate w/o LRRK2 WT in the 1× buffer was used for a negative control. Plates were centrifuged for 1 min at 200 g. Next the compounds were added to Reaction plate using Biomek station via following steps: 1 μL of 80× compounds (in DMSO) were mixed thoroughly with 39 μL of 2×10 μM ATP in Assay Buffer, then 4 μL of this mixture was added to Reaction plate with 4 μL of Protein-Substrate mix. Plates were centrifuged for 1 min at 200 g and incubated for 1 hour at rt. Then, 4 μL per well of ADP-Glo reagent (Promega, ADP-Glo™ Kinase Assay, Cat #V9102) was added. Plates were incubated for 30 minutes at rt. Then, 8 μL per well of Kinase detection reagent (Promega, ADP-Glo™ Kinase Assay, Cat #V9102) was added and the luminescence signal was measured with a microplate reader. The % inhibition was then used to calculate the Ki values. The average Ki values are shown in Table B, wherein “A” corresponds to Ki<10.0 nM, “B” corresponds to 10.0 nM K Ki<20.0 nM, “C” 20.0 nM K Ki<50.0 nM, “D” corresponds to 50.0 nM K Ki<100.0 nM and “E” corresponds to Ki>100.0 nM.
Target sequence in this assay (Q5S007 970-2527 limits assumed): as the sequence (Q5S007 970-2527 G2019S limits assumed) above, with S1050G counted along it

LRRK2[G2019S] [3] = biological target: T1, LRRK2[G2019S]; experiment: Cell-based NanoBRET target engagement assay in HEK293 cells transfected with LRRK2 (G2019S)-NanoLuc fusion vector; design: expressed in transfected cells; host or cells: HEK293 (ATCC); details: compound treatment 1 h
Method: (§1) Example C. Cell-Based NanoBRET Target Engagement Assay in 11EK293 Cells Transiently Transfected with LRRK2 WT- or LRRK2 (G2019S)-Nano Luc Fusion Vector
(§2) H1EK293 (ATCC) cells were transfected with […] LRRK2 WT or LRRK2 (G2019S) and 9 μg transfection carrier DNA. The transfected cells were treated with the compounds (starting at 1 μM, 10-dose with 3-fold dilution) and reference compounds CEP-701 or Staurosporine (starting at 1 μM, 10-dose with 3-fold dilution); compound treatment time: 1 h. LRRK2 WT and LRRK2 (G2019S) target engagement was measured by NanoBRET assay. Curve fits were performed only when % NanoBret signal at the highest concentration of compounds was less than […]. Assay format: 384-well format, 4000 cells/well. The IC50 values are shown in Table C, wherein “A” corresponds to IC50≤50.0 nM, “B” corresponds to 50.0 nM≤IC50<100.0 nM, “C” corresponds to 100.0 nM≤IC50.
Target sequence in this assay (Q5S007 whole entry G2019S): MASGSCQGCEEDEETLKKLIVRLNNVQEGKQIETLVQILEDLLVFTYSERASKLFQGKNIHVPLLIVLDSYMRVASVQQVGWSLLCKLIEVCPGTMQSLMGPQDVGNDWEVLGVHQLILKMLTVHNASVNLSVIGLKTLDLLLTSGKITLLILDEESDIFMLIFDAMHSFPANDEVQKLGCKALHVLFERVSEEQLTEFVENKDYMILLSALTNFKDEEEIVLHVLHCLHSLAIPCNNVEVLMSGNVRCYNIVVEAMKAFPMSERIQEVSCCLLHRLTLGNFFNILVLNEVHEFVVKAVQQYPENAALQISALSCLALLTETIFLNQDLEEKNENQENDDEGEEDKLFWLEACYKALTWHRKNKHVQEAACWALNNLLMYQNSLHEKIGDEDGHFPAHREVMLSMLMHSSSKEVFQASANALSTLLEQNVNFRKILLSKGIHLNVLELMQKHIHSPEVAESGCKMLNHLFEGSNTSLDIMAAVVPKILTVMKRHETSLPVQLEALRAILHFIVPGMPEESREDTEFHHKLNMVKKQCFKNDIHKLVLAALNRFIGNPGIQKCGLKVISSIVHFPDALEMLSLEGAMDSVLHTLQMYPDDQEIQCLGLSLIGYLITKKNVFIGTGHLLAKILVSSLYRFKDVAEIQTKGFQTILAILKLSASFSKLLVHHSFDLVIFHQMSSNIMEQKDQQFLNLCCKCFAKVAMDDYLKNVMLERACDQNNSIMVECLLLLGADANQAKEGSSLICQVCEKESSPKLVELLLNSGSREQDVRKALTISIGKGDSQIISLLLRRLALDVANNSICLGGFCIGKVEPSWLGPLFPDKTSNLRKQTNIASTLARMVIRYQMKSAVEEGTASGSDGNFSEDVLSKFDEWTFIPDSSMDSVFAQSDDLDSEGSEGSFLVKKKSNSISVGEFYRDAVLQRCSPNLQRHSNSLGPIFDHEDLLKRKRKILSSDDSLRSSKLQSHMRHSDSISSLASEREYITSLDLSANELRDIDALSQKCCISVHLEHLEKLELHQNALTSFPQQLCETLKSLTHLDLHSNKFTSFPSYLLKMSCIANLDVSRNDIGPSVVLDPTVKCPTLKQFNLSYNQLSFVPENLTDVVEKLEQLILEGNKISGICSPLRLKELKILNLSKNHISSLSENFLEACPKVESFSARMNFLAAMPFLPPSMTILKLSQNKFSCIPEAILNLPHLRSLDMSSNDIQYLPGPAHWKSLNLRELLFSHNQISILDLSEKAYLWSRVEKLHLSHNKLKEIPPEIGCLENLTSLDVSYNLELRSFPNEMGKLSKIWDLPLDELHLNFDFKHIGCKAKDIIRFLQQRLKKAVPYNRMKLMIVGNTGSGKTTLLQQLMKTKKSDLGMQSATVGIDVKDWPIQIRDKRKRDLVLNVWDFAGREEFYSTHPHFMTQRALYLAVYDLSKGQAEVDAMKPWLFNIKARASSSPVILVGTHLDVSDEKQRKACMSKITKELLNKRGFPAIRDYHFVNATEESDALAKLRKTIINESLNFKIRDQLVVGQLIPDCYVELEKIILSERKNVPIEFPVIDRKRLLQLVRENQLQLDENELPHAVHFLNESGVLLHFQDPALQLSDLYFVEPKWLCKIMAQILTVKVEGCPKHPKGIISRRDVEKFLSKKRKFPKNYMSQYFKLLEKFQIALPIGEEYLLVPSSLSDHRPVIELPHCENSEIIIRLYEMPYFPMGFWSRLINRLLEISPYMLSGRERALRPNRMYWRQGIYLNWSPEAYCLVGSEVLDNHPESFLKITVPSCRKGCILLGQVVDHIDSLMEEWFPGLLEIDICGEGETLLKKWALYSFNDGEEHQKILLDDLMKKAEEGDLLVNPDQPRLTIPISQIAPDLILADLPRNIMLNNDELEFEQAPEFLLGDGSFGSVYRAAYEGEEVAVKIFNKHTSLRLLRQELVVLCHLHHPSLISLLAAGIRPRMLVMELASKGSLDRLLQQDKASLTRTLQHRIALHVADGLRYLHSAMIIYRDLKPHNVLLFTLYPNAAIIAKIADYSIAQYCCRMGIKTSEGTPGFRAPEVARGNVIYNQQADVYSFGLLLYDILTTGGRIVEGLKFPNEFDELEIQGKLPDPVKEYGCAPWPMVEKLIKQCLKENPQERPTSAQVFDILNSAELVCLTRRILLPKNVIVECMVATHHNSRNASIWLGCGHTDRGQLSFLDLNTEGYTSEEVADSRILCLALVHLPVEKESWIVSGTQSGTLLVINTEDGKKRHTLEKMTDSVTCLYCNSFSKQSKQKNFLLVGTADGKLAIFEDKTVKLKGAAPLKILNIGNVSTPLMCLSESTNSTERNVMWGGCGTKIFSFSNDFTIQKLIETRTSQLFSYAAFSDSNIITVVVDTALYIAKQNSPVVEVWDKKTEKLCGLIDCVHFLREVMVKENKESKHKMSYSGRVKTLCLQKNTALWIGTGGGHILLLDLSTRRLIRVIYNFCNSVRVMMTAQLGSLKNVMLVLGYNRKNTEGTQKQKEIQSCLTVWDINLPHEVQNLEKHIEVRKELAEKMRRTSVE

LRRK2 WT [4] = biological target: T2, LRRK2 WT; experiment: Cell-based NanoBRET target engagement assay in HEK293 cells transfected with LRRK2 WT-NanoLuc fusion vector; design: expressed in transfected cells; host or cells: HEK293 (ATCC); details: compound treatment 1 h
Method: as §1, §2
Target sequence in this assay (Q5S007 whole entry): as the sequence (Q5S007 whole entry G2019S) above, with S2019G counted along it

[5] = A549 cytotoxicity assay (CellTiter-Glo); type: cell-based; details: human, A549 cells, 3 days of incubation
Method: Example D. A549 Cytotoxicity Assay Used to Determine Safety of the LRRK2 Inhibitors
A549 (ATCC, CCL-185) cells were seeded at a density of 4000 cells per well in a 384-well clear bottom plate (Greiner Cat #781090) in 45 μL total volume of the complete cell culture medium DMEM (PanEco, Cat #C420, Russia) with 10% FBS (HyClone Cat #SV30160.03). The cells were allowed to adhere overnight at 37° C., 5% CO2. The 500× compounds solutions in DMSO (Sigma Cat #D2650) were prepared in the compounds plate (Diamond Well Plate, Axigen, Cat #P-384-120SQ-C-S) and DMSO as a vehicle control was included. The 1 μL aliquot of 500× compounds (Compounds plate) was added to the 49 μL culture medium in the Dilution plate (Diamond Well Plate, Axigen, Cat #P-384-120SQ-C-S), mixed and then the 5 μL aliquots of the 10× compounds solutions was transferred to cells followed by centrifugation at 100 g for 1 min. Final DMSO concentration was 0.2%. After 3 days of incubation the 10 μL per well of CellTiter-Glo (Promega, CAT #G7572) was added to the cells, plate was centrifuged at 100 g for 1 min. The luminescence signal was detected with CLARIOstar Plus (BMG LABTECH) microplate reader.

| Compound | Ki (LRRK2[G2019S] [1]) | Ki (LRRK2 WT [2]) | IC50 (LRRK2[G2019S] [3]) | IC50 (LRRK2 WT [4]) | CC50 at 3 days [5] |
| --- | --- | --- | --- | --- | --- |
| CC(C)Oc1ccc2[nH]nc(-c3cc(N4CCOCC4)c(=O)n(C4CC4)n3)c2c1 [Compound 19, 2-cyclopropyl-6-(5-isopropoxy-1H-indazol-3-yl)-4-morpholino-pyridazin-3-one] | ≤ 5 nM | ≤ 10 nM | ≤ 50 nM | 50 to 100 nM | – |
| Cn1nc(-c2n[nH]c3ccc(OC4CC4)cc23)cc(N2CCOCC2)c1=O [Compound 30, 6-[5-(cyclopropoxy)-1H-indazol-3-yl]-2-methyl-4-morpholino-pyridazin-3-one] | ≤ 5 nM | ≤ 10 nM | ≥ 100 nM | ≥ 100 nM | – |
| Cn1nc(-c2n[nH]c3ccc(OC4(C)CC4)cc23)cc(N2CCCC(F)(F)C2)c1=O [Compound 54, 4-(3,3-difluoro-1-piperidyl)-2-methyl-6-[5-(1-methylcyclopropoxy)-1H-indazol-3-yl]pyridazin-3-one] | ≤ 5 nM | ≤ 10 nM | ≤ 50 nM | ≤ 50 nM | > 10000 nM |
| CC(C)Oc1ccc2[nH]nc(-c3cnnc(N4CCOCC4)c3)c2c1 [Compound 4, 4-[5-(5-isopropoxy-1H-indazol-3-yl)pyridazin-3-yl]morpholine] | ≤ 5 nM | ≤ 10 nM | ≤ 50 nM | 50 to 100 nM | – |
| CC1CCN(c2cc(-c3n[nH]c4ccc(OC(C)C)cc34)cnn2)C1 (stereo not drawn) [Compound 3, 5-isopropoxy-3-[6-(3-methylpyrrolidin-1-yl)pyridazin-4-yl]-1H-indazole] | ≤ 5 nM | ≤ 10 nM | ≥ 100 nM | ≥ 100 nM | > 10000 nM |
| CC(C)Oc1ccc2[nH]nc(-c3cc(N4CCOCC4)c(=O)n(C4CCCC4)n3)c2c1 [Compound 16, 2-cyclopentyl-6-(5-isopropoxy-1H-indazol-3-yl)-4-morpholino-pyridazin-3-one] | 5 to 10 nM | ≤ 10 nM | ≤ 50 nM | 50 to 100 nM | – |
| C[C@@H]1CN(c2cc(-c3n[nH]c4ccc(OC5(C)CC5)cc34)nn(C3CC3)c2=O)C[C@H](C)O1 [Compound 51, 2-cyclopropyl-4-[(2S,6R)-2,6-dimethylmorpholin-4-yl]-6-[5-(1-methylcyclopropoxy)-1H-indazol-3-yl]pyridazin-3-one] | ≤ 5 nM | ≤ 10 nM | ≤ 50 nM | ≤ 50 nM | – |
| CC(C)Cn1nc(-c2n[nH]c3ccc(OC(C)C)cc23)cc(N2CCOCC2)c1=O [Compound 18, 2-isobutyl-6-(5-isopropoxy-1H-indazol-3-yl)-4-morpholino-pyridazin-3-one] | 5 to 10 nM | ≤ 10 nM | ≥ 100 nM | ≥ 100 nM | – |
| Cn1nc(-c2n[nH]c3ccc(OC4(C)CC4)cc23)cc(N2CCC3(CCC3)C2)c1=O [Compound 56, 4-(6-azaspiro[3.4]octan-6-yl)-2-methyl-6-[5-(1-methylcyclopropoxy)-1H-indazol-3-yl]pyridazin-3-one] | ≤ 5 nM | ≤ 10 nM | ≤ 50 nM | ≤ 50 nM | > 10000 nM |
| Cn1nc(-c2n[nH]c3ccc(OC4(C)CC4)cc23)cc(N2CC(C)(C)C3COCC32)c1=O (stereo not drawn) [Compound 48, 4-(3,3-dimethyl-3a,4,6,6a-tetrahydro-2H-furo[3,4-b]pyrrol-1-yl)-2-methyl-6-[5-(1-methylcyclopropoxy)-1H-indazol-3-yl]pyridazin-3-one] | ≤ 5 nM | ≤ 10 nM | ≤ 50 nM | ≤ 50 nM | > 10000 nM |
| Cn1nc(-c2n[nH]c3ccc(OC4(C)CC4)cc23)cc(N2CCOCC3(CC3)C2)c1=O [Compound 52, 2-methyl-6-[5-(1-methylcyclopropoxy)-1H-indazol-3-yl]-4-(5-oxa-8-azaspiro[2.6]nonan-8-yl)pyridazin-3-one] | ≤ 5 nM | ≤ 10 nM | ≤ 50 nM | ≤ 50 nM | > 10000 nM |
| Cn1nc(-c2n[nH]c3ccc(OC4CCC4)cc23)cc(N2CCOCC2)c1=O [Compound 28, 6-[5-(cyclobutoxy)-1H-indazol-3-yl]-2-methyl-4-morpholino-pyridazin-3-one] | ≤ 5 nM | ≤ 10 nM | ≥ 100 nM | ≥ 100 nM | – |
| Cc1cc2[nH]nc(-c3cc(N4CCOCC4)c(=O)n(C)n3)c2cc1OC(C)C [Compound 26, 6-(5-isopropoxy-6-methyl-1H-indazol-3-yl)-2-methyl-4-morpholino-pyridazin-3-one] | 10 to 50 nM | ≤ 10 nM | ≥ 100 nM | ≥ 100 nM | – |
